# From patent EP0719271B1, “5-(1-FLUORO-VINYL)-1H-PYRIMIDINE-2,4-DIONE DERIVATIVES USEFUL AS ANTINEOPLASTIC AGENTS” (MERRELL PHARMACEUTICALS INC., priority 1993, dated 1995)
# Read-outs that look alike come from different tables or passages of the source.
# Tested on: KB cells
# Test: Antiproliferative activity against KB cells, cell viability by colorimetric MTT reduction assay
# Format: cell-based
# Settings: Homo sapiens
# Experimental: Plate KB cells (2X10^3 cells/well) and allow to grow for 18 hours. Treat with 2'-deoxy-5-(1-fluoroethenyl)uridine (15ng/mL) for 24 hours. Wash the compound and expose cells to 5-fluorouracil for another 72 hours. Determine the cell viability by a colorimetric assay, essentially as described by Carmichael et al. [Cancer Res. 47, 936 (1987)], whereby the cellular reduction of MTT [3-(4,5-dimethylthiazol-2-yl)-2,5-diphenyltetrazolium bromide] is measured.
# Calculate IC50 values for the individual treatments as well as for the combined treatments of 2'-deoxy-5-(1-fluoroethenyl)-uridine with 5-fluorouracil. The IC50 values at the various concentrations of 2'-deoxy-5-(1-fluoroethenyl)-uridine alone, 5-fluorouracil alone and 2'-deoxy-5-(1-fluoroethenyl)-uridine in combination with 5-fluorouracil are presented in Table 1.
"IC50 (individual treatment (compound alone), KB cells, 2X10^3 cells/well, MTT viability, read-out: IC50) [µM]",Structure (SMILES),IC50 (KB) [µM]
–,O=c1[nH]cc(F)c(=O)[nH]1 [5-Fluorouracil],60
9.4,"C=C(F)c1cn([C@H]2C[C@H](O)[C@@H](CO)O2)c(=O)[nH]c1=O [2'-Deoxy-5-(1-fluoroethenyl)-uridine, 2'-deoxy-5-(1-fluoroethenyl)uridine]",–
